Test results from ChEMBL document CHEMBL4689842, “EUbOPEN Chemogenomics Library wave 1” (2021).

Experiments:
Assay type in all cases: toxicity, cell-based
[1] = system: HEK-293T; test: Incucyte cell viability with HEK293T; details: human, 10 µM, compound concentration 10 uM
[2] = system: Fibroblast; test: Incucyte cell viability with human fibroblast; details: 10 µM, compound concentration 10 uM
[3] = system: U2OS; test: Incucyte cell viability with U2OS; details: human, 10 µM, compound concentration 10 uM
[4] = 0 h, replicate number 2, timepoint 0 hours
[5] = 6 h, replicate number 1, timepoint 6 hours
[6] = 6 h, replicate number 2, timepoint 6 hours
[7] = 12 h, replicate number 1, timepoint 12 hours
[8] = 18 h, replicate number 1, timepoint 18 hours
[9] = 24 h, replicate number 1, timepoint 24 hours
[10] = 0 h, replicate number 1, timepoint 0 hours
[11] = 12 h, replicate number 2, timepoint 12 hours
[12] = 18 h, replicate number 2, timepoint 18 hours
[13] = 24 h, replicate number 2, timepoint 24 hours
Note: filed as whole numbers so only -1 and 0 and 1 occur.

| SMILES | Growth Rate [1, 4] | Growth Rate [1, 5] | Growth Rate [1, 7] | Growth Rate [1, 8] | Growth Rate [1, 9] | Growth Rate [2, 10] | Growth Rate [2, 5] | Growth Rate [2, 7] | Growth Rate [2, 8] | Growth Rate [2, 9] | Growth Rate [3, 10] | Growth Rate [3, 6] | Growth Rate [3, 7] | Growth Rate [3, 8] | Growth Rate [3, 9] | Growth Rate [2, 4] | Growth Rate [3, 5] | Growth Rate [2, 6] | Growth Rate [3, 12] | Growth Rate [1, 10] | also measured |
| --- | --- | --- | --- | --- | --- | --- | --- | --- | --- | --- | --- | --- | --- | --- | --- | --- | --- | --- | --- | --- | --- |
| S=C=Nc1cccc(NC(=S)NCCCCNC(=S)Nc2cccc(N=C=S)c2)c1 | 0 | 0 | 0 | 0 | 0 | 0 | 0 | 0 | 0 | 0 | 0 | 0 | 1 | 0 | 0 | – | – | – | – | – | Growth Rate [1, 6]: 1; Growth Rate [3, 11]: 0 |
| CC(C)N(CCCNC(=O)Nc1ccc(C(C)(C)C)cc1)C[C@H]1O[C@@H](n2cc(Br)c3c(N)ncnc32)[C@H](O)[C@@H]1O | – | 0 | – | – | 1 | – | – | 1 | 1 | 1 | 0 | – | 1 | 1 | 1 | 0 | 1 | – | – | – | Growth Rate [1, 11]: 0; Growth Rate [1, 12]: 1 |
| Nc1ncnc2c1ccn2[C@@H]1O[C@H]([C@H](O)c2ccccc2)[C@@H](O)[C@H]1O | 1 | 1 | – | 1 | 1 | – | – | – | 1 | 1 | 0 | – | 0 | 0 | 0 | 0 | 0 | 1 | 1 | – | Growth Rate [1, 11]: 1; Growth Rate [2, 11]: 0; Growth Rate [2, 13]: 0; Growth Rate [3, 11]: 1; Growth Rate [3, 13]: 1 |
| Cl.Clc1cccc(COc2cncc(N3CCNCC3)n2)c1 | 1 | 0 | 0 | 0 | 0 | 1 | 1 | – | – | 1 | – | 0 | 0 | 1 | 1 | – | – | 0 | – | – | Growth Rate [2, 11]: 0; Growth Rate [2, 12]: 0; Growth Rate [2, 13]: 0; Growth Rate [3, 11]: 1 |
| COc1cc(-c2cn([C@H]3CCc4ccccc4N(CC(F)(F)F)C3=O)nn2)ccc1-n1ccc(C)n1 | 1 | 0 | 0 | 0 | 0 | – | 0 | 0 | 1 | 0 | 0 | – | 0 | 0 | 0 | 0 | 0 | – | – | – | Growth Rate [2, 11]: 1; Growth Rate [2, 12]: 0; Growth Rate [3, 11]: 1 |
| CCOC(=O)CCNc1cc(N2CCc3ccccc3CC2)nc(-c2cccnc2)n1 | 1 | 0 | 0 | 0 | 0 | – | 1 | 1 | 1 | 1 | – | – | 1 | 1 | 1 | 1 | 1 | 0 | 0 | – | Growth Rate [2, 12]: 0; Growth Rate [3, 4]: 0; Growth Rate [3, 11]: 0; Growth Rate [3, 13]: 0 |
| CN(C)C(=O)/C(C#N)=C/c1ccc(-c2nc3cnc4c(ccn4C)c3n2C2CCCCC2)o1 | – | 0 | 0 | 0 | 0 | – | 0 | 0 | 0 | 0 | 0 | 1 | 0 | 0 | 1 | – | 0 | 1 | 1 | – | Growth Rate [3, 11]: 1 |
| CSc1cccnc1N1CCN(Cc2nc3ccccc3[nH]2)CC1 [A-769] | 0 | 0 | 0 | 0 | 0 | 0 | 0 | 0 | 0 | 0 | – | – | 0 | 0 | 1 | 1 | 0 | 1 | 1 | 1 | Growth Rate [2, 11]: 1 |
| CCCOc1ccc([C@H]2[C@H](C(=O)O)[C@@H](c3ccc4c(c3)OCO4)CN2CC(=O)Nc2c(CC)cccc2CC)cc1 [A-192621] | – | 0 | 0 | 0 | 0 | 0 | 1 | 1 | 1 | 1 | – | – | 0 | 0 | 0 | 1 | 0 | 0 | 1 | 0 | Growth Rate [1, 12]: 1; Growth Rate [3, 13]: 1 |
| CC#CC(=O)N1CCC[C@H]1c1nc(-c2ccc(C(=O)Nc3ccccn3)cc2)c2c(N)nccn12 [ACALABRUTINIB] | – | 0 | 0 | 0 | 0 | 0 | 1 | 0 | 0 | 1 | 0 | – | 0 | 0 | 1 | – | 0 | 0 | – | 1 | Growth Rate [1, 12]: 1; Growth Rate [2, 11]: 1; Growth Rate [2, 13]: 0; Growth Rate [3, 4]: 1; Growth Rate [3, 13]: 0 |
| Cc1cc([C@@H](C)Nc2ccccc2C(=O)O)c2nc(N3CCOCC3)cc(=O)n2c1 [AZD-6482] | – | 0 | 0 | 0 | 0 | – | 0 | 0 | 0 | 1 | 0 | 1 | 0 | 0 | 0 | 0 | 0 | – | 1 | – | Growth Rate [1, 11]: 1; Growth Rate [1, 13]: 1; Growth Rate [2, 12]: 1; Growth Rate [3, 11]: 1 |
| Cc1cnc(-c2cc(Cl)ccc2F)cc1-n1c(=O)n(CC(N)=O)c2ccccc21 [Al11] | 1 | – | – | 1 | 1 | 0 | 1 | 1 | 0 | 1 | 0 | 0 | 1 | 1 | 1 | – | 1 | – | – | 0 | Growth Rate [1, 6]: 0; Growth Rate [1, 11]: 1; Growth Rate [2, 13]: 0; Growth Rate [3, 11]: 0 |
| Cc1noc([C@H]2C[C@@H](c3ccc(C(F)(F)F)cc3)CN(C(=O)N3CCS(=O)(=O)C3)C2)n1 [BAY-448] | 0 | 0 | 0 | 0 | 0 | 0 | 1 | 1 | 0 | 0 | 0 | 1 | 1 | 0 | 0 | – | – | 0 | 1 | 1 | Growth Rate [1, 6]: 1; Growth Rate [1, 11]: 1; Growth Rate [2, 13]: 1; Growth Rate [3, 13]: 1 |
| O=C(NCc1ncc(C(F)(F)F)cc1Cl)c1ccc2c(c1)C1(CCS(=O)(=O)CC1)[C@@H](C1CC1)N2S(=O)(=O)c1ccc(F)cc1 [BAY-786] | – | 1 | 0 | 0 | 0 | 0 | 1 | 1 | 1 | 1 | 0 | 0 | 1 | 1 | 0 | 1 | – | – | 0 | 0 | Growth Rate [1, 11]: 1; Growth Rate [1, 12]: 1; Growth Rate [1, 13]: 1 |
| O=C(Nc1ccc(Oc2ccc(F)cc2)cc1)N1CCc2ncccc2[C@H]1c1ccc(F)cc1 [BAY-897] | – | 0 | 0 | 0 | 0 | 0 | 1 | 1 | 1 | 1 | 0 | – | 1 | 1 | 1 | – | – | 0 | – | 0 | – |
| C[C@H](NC(=O)c1cnc2n1[C@](C)(Cc1ccc(C#N)cc1)C(=O)N2c1cc(Cl)c(F)c(Cl)c1)C(=O)NC1(c2ccccn2)CC1 [BI 1950] | 0 | 0 | 0 | 0 | 0 | 0 | – | – | 1 | 1 | 0 | 1 | 1 | 1 | 1 | 1 | – | 0 | – | 1 | Growth Rate [2, 11]: 0; Growth Rate [2, 12]: 0; Growth Rate [2, 13]: 0 |
| CCOC(=O)c1cc2cc(-c3cc(C(=O)NCc4ccc(C(=O)O)cc4)nn3C)ccc2[nH]1 [BI 4394] | – | – | 1 | 0 | 0 | 1 | 0 | 1 | 1 | 1 | – | – | 1 | 0 | 1 | 0 | 1 | – | 1 | 0 | Growth Rate [1, 12]: 1; Growth Rate [2, 11]: 0; Growth Rate [3, 4]: 0 |
| CN(C)C(=O)Cn1cc(-c2nc([C@@](C)(c3ccc(-c4cnc(N)nc4)cc3)C3CC3)no2)cn1 [BI 665915] | 1 | 0 | 0 | 0 | 0 | 1 | 1 | 1 | 0 | 0 | 0 | 1 | 1 | 0 | 1 | – | 0 | – | – | 0 | Growth Rate [1, 11]: 1; Growth Rate [1, 12]: 1; Growth Rate [1, 13]: 1; Growth Rate [2, 12]: 1; Growth Rate [2, 13]: 1; Growth Rate [3, 13]: 0 |
| O=S1(=O)c2cccc3cccc(c23)N1CCCN1CCN(c2ccc(F)cc2)CC1 [FANANSERIN] | 0 | 0 | 0 | 0 | 0 | 0 | 1 | 0 | 1 | 1 | – | – | 1 | 1 | 1 | – | – | 0 | – | – | Growth Rate [2, 12]: 0; Growth Rate [2, 13]: 0; Growth Rate [3, 4]: 0 |
